Results on eleven compounds are retold here after US9120774B2 (University of Kansas, priority 2009, dated 2015).

Where two headings read alike, the source gives them in different places. Where only a bound is given, the exact number is not on record here.

What all share (type): cell-based
The subject of assay [1] is MCF-7 (estrogen receptor positive breast cancer cells). The assay is described as follows: Anti-proliferation activity against MCF-7 cells (MTS/PMS). The following applies: for IC50: Homo sapiens, MCF7. The procedure: (§1) Upon completion of synthesis of library of compounds in Examples 23 and 24, the compounds were evaluated for anti-proliferative activity against SkBr3 (Her2 overexpressing breast cancer cells), MCF-7 (estrogen receptor positive breast cancer cells), HCT-116 (colon cancer cells characterized by wild-type p53), PL45 (pancreatic cancer cells), LNCaP (androgen sensitive prostate cancer cells) and PC-3 (androgen independent prostate cancer cells) cell lines.
(§2) Cells were maintained in a 1:1 mixture of Advanced DMEM/F12 (Gibco) supplemented with non-essential amino acids, L-glutamine (2 mM), streptomycin (500 ng/mL), penicillin (100 units/mL), and 10% FBS. Cells were grown to confluence in a humidified atmosphere (37° C., 5% CO2), seeded (2000/well, 100 μl) in 96-well plates, and allowed to attach overnight. Compound or GDA at varying concentrations in DMSO (1% DMSO final concentration) was added, and cells were returned to the incubator for 72 hours. At 72 hours, the number of viable cells was determined using an MTS/PMS cell proliferation kit (Promega) per the manufacturer's instructions. Cells incubated in 1% DMSO were used at 100% proliferation, and values were adjusted accordingly. IC50 values were calculated from separate experiments performed in triplicate using GraphPad Prism.
as §2, with “μg/mL),” for “ng/mL),”, “μL)” for “μl)”

Assay [2] deals with LNCaP (androgen sensitive prostate cancer cells). Put plainly: Anti-proliferation activity against LNCaP cells. The following applies: Homo sapiens, LNCaP. The procedure: (§3) Upon completion of synthesis of library of compounds in Examples 23 and 24, the compounds were evaluated for anti-proliferative activity against SkBr3 (Her2 overexpressing breast cancer cells), MCF-7 (estrogen receptor positive breast cancer cells), HCT-116 (colon cancer cells characterized by wild-type p53), PL45 (pancreatic cancer cells), LNCaP (androgen sensitive prostate cancer cells) and PC-3 (androgen independent prostate cancer cells) cell lines. […] The monosubstituted benzamide variants improved activity.
as §2

In assay [3] the test system is SkBr3 (Her2 overexpressing breast cancer cells). Put plainly: Anti-proliferation activity against SkBr3 cells (MTS/PMS). The conditions noted are these: Homo sapiens, SK-BR-3. How it is done: as §1, §2
as §2, with “μg/mL),” for “ng/mL),”, “μL)” for “μl)”

The subject of assay [4] is PC-3 (androgen independent prostate cancer cells). Put plainly: Anti-proliferation activity against PC-3 cells. The following applies: Homo sapiens, PC-3. The procedure:
as §3
Cells were maintained in a 1:1 mixture of Advanced DMEM/F12 (Gibco) supplemented with non-essential amino acids, L-glutamine (2 mM), streptomycin (500 ng/mL), penicillin (100 units/mL), and 10% FBS. Cells were grown to confluence in a humidified atmosphere (37° C., 5% CO2), seeded (2000/well, 100 μl) in 96-well plates, and allowed to attach overnight. […] […] Cells incubated in 1% DMSO were used at 100% proliferation, and values were adjusted accordingly. IC50 values were calculated from separate experiments performed in triplicate using GraphPad Prism.

In assay [5] the test system is HCT-116 (colon cancer cells characterized by wild-type p53). The assay is described as follows: Anti-proliferation activity against HCT-116 cells. The conditions noted are these: Homo sapiens. How it is done:
as §3

Assay [6] relates to PL45 (pancreatic cancer cells). Put plainly: Anti-proliferation activity against PL45 cells. The procedure: as §3
Setting [7] is: Table 6, 72 hours, MTS/PMS, mean ± standard deviation, read-out: IC50 MCF-7.
Setting [8] is: Table 6, 72 hours, MTS/PMS, mean ± standard deviation, read-out: IC50 LnCaP.
Where [9] appears, read: Table 6, 72 hours, MTS/PMS, mean ± standard deviation, read-out: IC50 SKBr3.
[10] abbreviates: Table 6, 72 hours, MTS/PMS, mean ± standard deviation, read-out: IC50 PC-3.
Setting [11] is: Table 7, 72 hours, MTS/PMS, mean ± standard deviation, read-out: Anti-proliferation activity MCF-7.
Setting [12] is: Table 7, 72 hours, MTS/PMS, mean ± standard deviation, read-out: Anti-proliferation activity LnCaP.
[13] abbreviates: Table 7, 72 hours, MTS/PMS, mean ± standard deviation, read-out: Anti-proliferation activity SkBr3.
Where [14] appears, read: Table 7, 72 hours, MTS/PMS, mean ± standard deviation, read-out: Anti-proliferation activity PC-3.
Where [15] appears, read: Table 2, n = 3, read-out: IC50 MCF-7.
Setting [16] is: Table 2, n = 3, read-out: IC50 SkBr3.
[17] abbreviates: Table 2, n = 3, read-out: IC50 PC-3.
[18] abbreviates: Table 2, n = 3, read-out: IC50 LNCaP.

Regarding `COc1c(O[C@@H]2OC(C)(C)[C@H](OC)[C@@H](O)[C@H]2O)ccc2cc(NC(=O)c3cc4ccccc4[nH]3)c(=O)oc12` [26o, N-(7-((2S,3R,4S,5R)-3,4-dihydroxy-5-methoxy-6,6-dimethyltetrahydro-2H-pyran-2-yloxy)-8-methoxy-2-oxo-2H-chromen-3-yl)-1H-indole-2-carboxamide], the IC50 in assay [1] (setting [7]) is over 100 µM; in assay [2] (setting [8]), over 100 µM; in assay [3] (setting [9]), 9.7 ± 1 µM; in assay [4] (setting [10]), over 100 µM.
Turning to `CCc1c(O[C@@H]2OC(C)(C)[C@H](OC)[C@@H](O)[C@H]2O)ccc2cc(NC(=O)c3cc4ccccc4[nH]3)c(=O)oc12` [26p, N-(7-((2R,3R,4S,5R)-3,4-dihydroxy-5-methoxy-6,6-dimethyltetrahydro-2H-pyran-2-yloxy)-8-ethyl-2-oxo-2H-chromen-3-yl)-1H-indole-2-carboxamide], the IC50 in assay [1] (setting [7]) is 4.3 ± 2.5 µM; in assay [2] (setting [8]) it was over 100 µM; in assay [3] (setting [9]), 4.3 ± 3.4 µM; in assay [4] (setting [10]), over 100 µM. Moreover, in assay [1] (MCF-7 cells), the “fold less active than the 8-methyl derivative” value stood at 7 fold.
In the case of `COc1ccc(CN(C(=O)c2ccc(OC)c(-c3cccc(OC)c3)c2)c2cnc3cc(O[C@@H]4OC(C)(C)[C@H](OC)[C@@H](O)[C@H]4O)ccc3c2)cc1` [42a, N-(4-Methoxybenzyl)-N-(7-((2R,3R,4S,5R)-3,4-dihydroxy-5-methoxy-6,6-dimethyl-tetrahydro-2H-pyran-2-yloxy)quinolin-3-yl)-4-methoxy-3-(3-methoxyphenyl)-benzamide], the IC50 in assay [1] (setting [11]), in assay [2] (setting [12]), in assay [3] (setting [13]) and in assay [4] (setting [14]) was over 100 µM in each case.
Regarding `COc1cccc(-c2cc(C(=O)Nc3cnc4cc(O[C@@H]5OC(C)(C)[C@H](OC)[C@@H](O)[C@H]5O)ccc4c3)ccc2OC)c1` [42b, N-(7-((2R,3R,4S,5R)-3,4-Dihydroxy-5-methoxy-6,6-dimethyl-tetrahydro-2H-pyran-2-yloxy)quinolin-3-yl)-4-methoxy-3-(3-methoxyphenyl)-benzamide], the IC50 in assay [1] (setting [11]) is 13.1 ± 4.1 µM; in assay [2] (setting [12]), 14.2 ± 0.4 µM; in assay [3] (setting [13]), 16.5 ± 6.2 µM; in assay [4] (setting [14]), 17.6 ± 4.6 µM.
For `COc1ccc(CN(C(=O)c2ccc(OC)c(-c3cccc(OC)c3)c2)c2ccc3cc(O[C@@H]4OC(C)(C)[C@H](OC)[C@@H](O)[C@H]4O)ccc3c2)cc1` [42c, N-(4-Methoxybenzyl)-N-(6-((2R,3R,4S,5R)-3,4-dihydroxy-5-methoxy-6,6-dimethyl-tetrahydro-2H-pyran-2-yloxy)naphthalen-2-yl)-4-methoxy-3-(3-methoxyphenyl)-benzamide], in that order: over 100 µM, over 100 µM, over 100 µM and over 100 µM.
Regarding `COc1cccc(-c2cc(C(=O)Nc3ccc4cc(O[C@@H]5OC(C)(C)[C@H](OC)[C@@H](O)[C@H]5O)ccc4c3)ccc2OC)c1` [42d, N-(6-((2R,3R,4S,5R)-3,4-Dihydroxy-5-methoxy-6,6-dimethyl-tetrahydro-2H-pyran-2-yloxy)naphthalen-2-yl)-4-methoxy-3-(3-methoxyphenyl)-benzamide], the IC50 in assay [1] (setting [11]) came out at 46.4 ± 5.3 µM; in assay [2] (setting [12]), 19.6 ± 1.6 µM; in assay [3] (setting [13]) it was 38.9 ± 2.4 µM; in assay [4] (setting [14]) it was 10.9 ± 0.7 µM.
For `COc1ccccc1C(=O)Nc1cc2ccc(O[C@@H]3OC(C)(C)[C@H](OC)[C@@H](O)[C@H]3O)c(C)c2oc1=O` [compound 9, N-(7-((2R,3R,4S,5R)-3,4-Dihydroxy-5-methoxy-6,6-dimethyltetrahydro-2H-pyran-2-yloxy)-8-methyl-2-oxo-2H-chromen-3-yl)-2-methoxybenzamide], the IC50 in assay [1] (setting [15]) is 5.3 ± 1.3 µM; in assay [3] (setting [16]), over 100 µM; in assay [5] (Table 2, n = 3), over 100 µM; in assay [4] (setting [17]) it was 9.1 ± 0.5 µM; in assay [6] (Table 2, n = 3), 35.8 ± 3.4 µM.
`COc1cccc(C(=O)Nc2cc3ccc(O[C@@H]4OC(C)(C)[C@H](OC)[C@@H](O)[C@H]4O)c(C)c3oc2=O)c1` [compound 10, N-(7-((2R,3R,4S,5R)-3,4-Dihydroxy-5-methoxy-6,6-dimethyltetrahydro-2H-pyran-2-yloxy)-8-methyl-2-oxo-2H-chromen-3-yl)-3-methoxybenzamide]: the IC50 in assay [1] (setting [15]) is 5.6 ± 2.5 µM; in assay [2] (setting [18]), 21.7 ± 2 µM; in assay [3] (setting [16]), over 100 µM; in assay [5] (Table 2, n = 3), 1.9 ± 0.6 µM; in assay [6] (Table 2, n = 3) it was 2.8 ± 0.8 µM.
On to `CO[C@@H]1[C@@H](O)[C@@H](O)[C@H](Oc2ccc3cc(NC(=O)c4ccccc4[N+](=O)[O-])c(=O)oc3c2C)OC1(C)C` [compound 15, N-(7-((2R,3R,4S,5R)-3,4-Dihydroxy-5-methoxy-6,6-dimethyltetrahydro-2H-pyran-2-yloxy)-8-methyl-2-oxo-2H-chromen-3-yl)-2-nitrobenzamide], for which the IC50 in assay [1] (setting [15]) amounted to 28.7 ± 4.8 µM; in assay [2] (setting [18]), 16.8 ± 0.8 µM; in assay [3] (setting [16]), 21.8 ± 0.8 µM; in assay [5] (Table 2, n = 3) it was 44.3 ± 4.8 µM; in assay [6] (Table 2, n = 3) it was 20.1 ± 4.7 µM.
In the case of `CO[C@@H]1[C@@H](O)[C@@H](O)[C@H](Oc2ccc3cc(NC(=O)c4cccc([N+](=O)[O-])c4)c(=O)oc3c2C)OC1(C)C` [compound 16, N-(7-((2R,3R,4S,5R)-3,4-Dihydroxy-5-methoxy-6,6-dimethyltetrahydro-2H-pyran-2-yloxy)-8-methyl-2-oxo-2H-chromen-3-yl)-3-nitrobenzamide], the IC50 in assay [1] (setting [15]) is over 100 µM; in assay [3] (setting [16]), over 100 µM; in assay [5] (Table 2, n = 3), over 100 µM; in assay [4] (setting [17]) it was over 100 µM; in assay [6] (Table 2, n = 3), over 100 µM.
With `CO[C@@H]1[C@@H](O)[C@@H](O)[C@H](Oc2ccc3cc(NC(=O)OCc4ccccc4)c(=O)oc3c2C)OC1(C)C` [compound 24, Benzyl 7-((2R,3R,4S,5R)-3,4-dihydroxy-5-methoxy-6,6-dimethyltetrahydro-2H-pyran-2-yloxy)-8-methyl-2-oxo-2H-chromen-3-ylcarbamate], the IC50 in assay [1] (Table 3, n = 3, read-out: IC50 MCF-7) is 12.1 ± 0.1 µM; in assay [3] (Table 3, n = 3, read-out: IC50 SkBr3), 17.8 ± 2.4 µM; in assay [5] (Table 3, n = 3), 13 ± 0.2 µM; in assay [6] (Table 3, n = 3), 11.4 ± 0.6 µM.
